Measurements published in PubChem BioAssay (NCI).
Where “and” joins values, the source holds several entries; their conditions need not be identical. Equal values may be shown once.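 Protocol summary: plate cells (96-well), add compound at 5 concentrations, incubate 48 h, interpolate endpoints linearly. Here, GI50 denotes the concentration required for 50% inhibition of growth. The concentration for full growth arrest is given as TGI.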

Legend:
Experiment in all cases: NCI tumour cell line growth inhibition, 48 h
K-562 leukemia = test system: K-562 leukemia
HT29 colon = test system: HT29 colon
SK-MEL-2 melanoma = test system: SK-MEL-2 melanoma
UACC-257 melanoma = test system: UACC-257 melanoma
HOP-62 NSCLC = test system: HOP-62 NSCLC
OVCAR-8 ovarian = test system: OVCAR-8 ovarian
M14 melanoma = test system: M14 melanoma
OVCAR-3 ovarian = test system: OVCAR-3 ovarian
DU-145 prostate = test system: DU-145 prostate
MDA-MB-435 = test system: MDA-MB-435

Compound	TGI (K-562 leukemia)	TGI (HT29 colon)	TGI (SK-MEL-2 melanoma)	TGI (UACC-257 melanoma)	TGI (HOP-62 NSCLC)	TGI (OVCAR-8 ovarian)	TGI (M14 melanoma)	TGI (OVCAR-3 ovarian)	GI50 (DU-145 prostate)	TGI (DU-145 prostate)	GI50 (K-562 leukemia)	GI50 (HT29 colon)	GI50 (UACC-257 melanoma)	GI50 (HOP-62 NSCLC)	GI50 (MDA-MB-435)	TGI (MDA-MB-435)	GI50 (OVCAR-8 ovarian)	GI50 (M14 melanoma)	GI50 (OVCAR-3 ovarian)	GI50 (SK-MEL-2 melanoma)
CCCCCCCCCCCCCCCCc1c(C(=O)OC)nc(NC#N)[nH]c1=O	> 25 µM	> 25 µM	> 25 µM	> 25 µM	> 25 µM	> 25 µM	> 25 µM	> 25 µM	–	–	–	–	–	–	–	–	–	–	–	–
C=CC12CCCCC1CC(C(=O)OC)=C(O)C2 (centres undefined)	> 100 µM	> 100 µM	> 100 µM	> 100 µM	> 100 µM	> 100 µM	> 100 µM	> 100 µM	–	–	–	–	–	–	–	–	–	–	–	–
COc1ccc(C2c3ccc4ccccc4c3Oc3ncn(CCCn4ccnc4)c(=N)c32)cc1OC (centres undefined)	4.54 µM	5.6 µM	–	11.4 µM	18.4 µM	11.6 µM	3.83 µM	11 µM	5.49 µM	18.2 µM	2.07 µM	2.2 µM	3.07 µM	5.03 µM	1.99 µM	4.06 µM	3.16 µM	1.98 µM	3.44 µM	–
CC(=O)OCC1OC(SC2=N/C(=C\c3ccc(Br)s3)C(=O)N2c2ccccc2)C(OC(C)=O)C(OC(C)=O)C1OC(C)=O (centres undefined)	> 100 µM	> 100 µM	> 100 µM and 48.9 µM	> 100 µM	> 100 µM	> 100 µM	–	> 100 µM and 85.2 µM	> 100 µM and 42.8 µM	> 100 µM	> 100 µM and 18.9 µM	> 100 µM and 28.6 µM	> 100 µM and 42.5 µM	–	86.3 µM and 32.2 µM	> 100 µM	27.9 µM and 70.3 µM	–	91.1 µM and 20.7 µM	–
N#CC(Sc1ccccc1)C(N)=O (centres undefined)	> 100 µM	> 100 µM	–	> 100 µM	> 100 µM	> 100 µM	> 100 µM	> 100 µM	–	–	–	–	–	–	–	–	–	–	–	–
CCCCCCCCCCCCCCCCn1cc[n+](C)c1	1.13 µM	1.25 µM	–	–	1.73 µM	–	1.3 µM	1.02 µM	0.651 µM	1.94 µM	0.131 µM	0.291 µM	–	0.443 µM	0.358 µM	1.49 µM	–	0.268 µM	0.286 µM	–
Cc1ccc(-c2cc(C(=O)Nc3ccc(S(=O)(=O)N4CCCCC4)cc3)[nH]n2)c(O)c1	> 100 µM	> 100 µM	> 100 µM	> 100 µM	> 100 µM	> 100 µM	–	> 100 µM	> 100 µM	> 100 µM	74.1 µM	> 100 µM	> 100 µM	> 100 µM	> 100 µM	> 100 µM	> 100 µM	–	> 100 µM	> 100 µM
COc1cc2c3c(n(CCCN=[N+]=[N-])c(=O)c2cc1OC)-c1ccccc1C3=O	> 100 µM	> 100 µM	> 100 µM	–	43.1 µM	> 100 µM	13.9 µM	24.5 µM	28 µM	> 100 µM	3.48 µM	> 100 µM	–	3.53 µM	9.81 µM	83.9 µM	5.68 µM	1.82 µM	4.58 µM	> 100 µM
CC1OC(n2cc(F)c(=O)[nH]c2=O)CCC1=O (centres undefined)	> 100 µM	> 100 µM	> 100 µM	> 100 µM	> 100 µM	> 100 µM	> 100 µM	–	–	–	–	–	–	–	–	–	–	–	–	–
